Data set [1] has as its system MDA-MB231-luc-D3H2LN cells. Nature of the data set: Invasion of MDA-MB231-D3H2LN cells into collagen (example 15 = procedure 2, 48 h drug pre-incubation). It counts as cell-based. In a few lines: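 Cells embedded at the bottom of collagen gels were pre-treated 48 h with compound in 0.025% FBS, then stimulated with 5% FBS for 24 h at 37° C. Nuclei were imaged at 0, 25 and 50 µm to give mean invasion distance, with MTS viability also measured. Value is the concentration giving 50% of the effect of 10 µM Y-27632.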

For a further data set, the system named is human PBMC. Put plainly: Toxicity assay under normal cell culture conditions (MTS), PBMC. The data set is classed as cell-based. The settings on record: human PBMC, RPMI+10% FBS+IL-2, 72 h incubation, MTS. In a few lines:
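Human PBMC (75000/well) in RPMI + 10% FBS + IL-2 were exposed to compounds for 72 h, with viability read by MTS. Concentration-response curves gave the concentration producing 50% toxicity.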

The target of a further data set is T1, hERG channel (Homo sapiens, UniProt Q12809).
T1 construct: host or cells: HEK293
T1 sequence (Q12809 whole entry): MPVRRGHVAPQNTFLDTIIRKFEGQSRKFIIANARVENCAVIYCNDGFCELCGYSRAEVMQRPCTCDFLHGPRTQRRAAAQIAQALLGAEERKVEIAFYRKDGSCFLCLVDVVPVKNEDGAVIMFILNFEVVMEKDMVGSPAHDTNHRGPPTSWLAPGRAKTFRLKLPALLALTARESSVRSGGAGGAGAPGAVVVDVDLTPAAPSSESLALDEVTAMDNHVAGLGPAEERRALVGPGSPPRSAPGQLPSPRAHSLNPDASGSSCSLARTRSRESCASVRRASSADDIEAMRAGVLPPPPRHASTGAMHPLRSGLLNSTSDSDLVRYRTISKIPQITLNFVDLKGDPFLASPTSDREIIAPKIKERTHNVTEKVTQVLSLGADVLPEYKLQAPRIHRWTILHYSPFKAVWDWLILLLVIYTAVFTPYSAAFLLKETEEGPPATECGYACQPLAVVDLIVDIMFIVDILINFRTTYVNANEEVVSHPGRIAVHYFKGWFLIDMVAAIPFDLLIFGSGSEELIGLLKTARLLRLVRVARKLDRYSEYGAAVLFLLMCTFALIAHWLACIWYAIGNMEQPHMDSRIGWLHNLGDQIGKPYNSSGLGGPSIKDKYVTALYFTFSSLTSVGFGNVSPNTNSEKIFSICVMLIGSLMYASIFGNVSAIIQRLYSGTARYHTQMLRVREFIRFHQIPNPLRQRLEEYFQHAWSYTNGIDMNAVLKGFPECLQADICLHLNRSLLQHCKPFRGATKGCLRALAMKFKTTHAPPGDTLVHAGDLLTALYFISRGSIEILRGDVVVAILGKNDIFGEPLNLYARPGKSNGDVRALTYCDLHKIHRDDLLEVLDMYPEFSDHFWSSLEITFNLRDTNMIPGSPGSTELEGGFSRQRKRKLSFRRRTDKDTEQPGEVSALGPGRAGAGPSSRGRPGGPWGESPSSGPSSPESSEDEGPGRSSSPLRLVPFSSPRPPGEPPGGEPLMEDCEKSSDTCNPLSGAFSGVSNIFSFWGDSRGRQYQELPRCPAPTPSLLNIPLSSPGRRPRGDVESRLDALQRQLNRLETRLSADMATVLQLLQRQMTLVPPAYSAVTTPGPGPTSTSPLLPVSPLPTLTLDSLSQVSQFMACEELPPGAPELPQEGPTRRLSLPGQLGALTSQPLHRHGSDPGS
Put plainly: hERG channel inhibition (electrophysiology, hERG-transfected HEK293 cells). It counts as cell-based. As to the method:
Performed by Porsolt & Partners (Z. A. de Glatigné, 53940 Le Genest-Saint-Isle, France). Briefly, each 3 hERG-transfected HEK293 cells were superfused with the compounds at 1 and 10 μM, and the hERG channel current was measured by electrophysiology, as described by Crumb et al., J. Pharmacol. Exp. Ther. 2000.

The test system of data set [2] is MDA-MB231-luc-D3H2LN cells. Put plainly: Toxicity assay under normal cell culture conditions (MTS), MDA cells. The settings on record: MDA-MB231-luc-D3H2LN cells, MEM+10% FBS, 72 h incubation, MTS. The data set is classed as cell-based, human. In a few lines:
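Under normal culture conditions (MEM with 10% FBS), MDA-MB231-luc-D3H2LN cells (2000/well) were exposed to compound concentration series for 72 h. Viability measured by MTS assay. Value is the concentration giving 50% toxicity.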

Data set [3] has as its system MDA-MB231-luc-D3H2LN cells. Nature of the data set: Invasion of MDA-MB231-D3H2LN cells into collagen (procedure 1, 24 h drug incubation). It counts as cell-based, human. As to the method: It is to be noted that both Procedures 1 and 2 are invasion assays to test effect of drug compounds on invasion. They are both fully identical except for the time of incubation with the drug.
Here, invasion (into collagen) is the number of cells per valid field at 50 μm fold inhibitory effect compared to 10 μM Y-27632.
Standard Operating Procedure 1:
Said procedure is as described in example 15 except with respect to (i) the last step during day 1 “preparation of the invasion assay” and “treatment with the drugs” and days 2 and 3 which are detailed hereinafter and (ii) the fact that no concentration nor toxicity is determined at the end.
add each 33 μl/well of the 4× concentrated drug solutions in MEM+0.1% FBS to the corresponding wells in all three plates, according to the plate maps above
incubate 24 h at 37° C./5% CO2
The analysis as performed in day 5 in example 15 is performed exactly under the same conditions in day 3 in the framework of the present procedure 1.

Data set [4] relates to MDA-MB231-luc-D3H2LN cells. Put plainly: Viability (MTS) assay on the cells in collagen under invasion assay conditions. The data set is classed as cell-based, human. The settings on record: loss of viability at the concentration giving 0.5 × effect of 10 μM Y-27632, invasion assay conditions. In a few lines:
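Run on cells embedded in collagen after a further 24 h, on serum-starved cells and in parallel on cells in 10% FBS. MTS reagent 3–4 h at 37 °C, absorbance at 490 nm; background-corrected signals expressed as % of untreated control.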

Results on one molecule are retold here after patent US9969715B2, “Compounds useful for treating cancer” (ABIVAX, priority 2012, dated 2018).

Where two headings read alike, the source gives them in different places.

Consider `CCN(CC)CCCNC(=O)c1cccc(Nc2cccc(/C=C/c3ccncc3)c2)c1` [Compound C88, reference compound], for which the IC50 in data set [1] (Homo sapiens, procedure 2, second set of experiments, read-out: Invasion Av.: concentration of the compound necessary to reach 50% of the inhibition effect compared to 10 μM Y-27632) amounted to 0.39 µM; in data set [1] (concentration giving 50% of the anti-invasive effect of 10 μM Y-27632, 48 h pre-incubation, 24 h with 5% FBS, read-out: MDA: Inhib. of invasion: 0.5 × eff. of 10 μM Y-27632 at (μM) av), 0.39 µM. Also, the “anti-invasive activity (in words)” value is reported as “anti-invasive activity is detected” in data set [1] (second set of experiments, procedure 2 (example 15)) and “anti-invasive activity was detected” in data set [3] (first set of experiments, procedure 1). For the same molecule, the “PBMC tox.: 50% tox. at (μM) av” value in the data set on human PBMC worked out at 10 µM. On hERG channel (1 μM compound), the “% hERG inhibition in transfected HEK (n = 3) at 1 μM av” value came out at 55%. Further, the “% hERG inhibition in transfected HEK (n = 3) at 10 μM av” value on hERG channel (10 μM compound) was found to be 92%. Also, in data set [2], the “MDA tox: 50% tox. at (μM) av” value was 10 µM. Further, in data set [3] (procedure 1, first set of experiments), the “Invasion av.: number of cells per valid field at 50 μm, fold inhibitory effect compared to 10 μM Y-27632” value stood at 1. The “(+ MDA tox. under these cond.) % tox” value in data set [4] is less than 10%.
